Data: ChEMBL document CHEMBL1770117 (Bioorg Med Chem Lett, 2011)

Legend:
[1] = target: T1, Metabotropic glutamate receptor 5 (Rattus norvegicus, UniProt P31424); assay: Positive allosteric modulator activity at mGluR5 receptor expressed in HEK293A cells assessed as effect on glutamate-induced calcium flux preincubated for 140 secs before glutamate challenge by calcium fluorescence assay; assay type: functional, cell-based, HEK293-A
Target sequence in this assay (P31424 whole entry, looked up): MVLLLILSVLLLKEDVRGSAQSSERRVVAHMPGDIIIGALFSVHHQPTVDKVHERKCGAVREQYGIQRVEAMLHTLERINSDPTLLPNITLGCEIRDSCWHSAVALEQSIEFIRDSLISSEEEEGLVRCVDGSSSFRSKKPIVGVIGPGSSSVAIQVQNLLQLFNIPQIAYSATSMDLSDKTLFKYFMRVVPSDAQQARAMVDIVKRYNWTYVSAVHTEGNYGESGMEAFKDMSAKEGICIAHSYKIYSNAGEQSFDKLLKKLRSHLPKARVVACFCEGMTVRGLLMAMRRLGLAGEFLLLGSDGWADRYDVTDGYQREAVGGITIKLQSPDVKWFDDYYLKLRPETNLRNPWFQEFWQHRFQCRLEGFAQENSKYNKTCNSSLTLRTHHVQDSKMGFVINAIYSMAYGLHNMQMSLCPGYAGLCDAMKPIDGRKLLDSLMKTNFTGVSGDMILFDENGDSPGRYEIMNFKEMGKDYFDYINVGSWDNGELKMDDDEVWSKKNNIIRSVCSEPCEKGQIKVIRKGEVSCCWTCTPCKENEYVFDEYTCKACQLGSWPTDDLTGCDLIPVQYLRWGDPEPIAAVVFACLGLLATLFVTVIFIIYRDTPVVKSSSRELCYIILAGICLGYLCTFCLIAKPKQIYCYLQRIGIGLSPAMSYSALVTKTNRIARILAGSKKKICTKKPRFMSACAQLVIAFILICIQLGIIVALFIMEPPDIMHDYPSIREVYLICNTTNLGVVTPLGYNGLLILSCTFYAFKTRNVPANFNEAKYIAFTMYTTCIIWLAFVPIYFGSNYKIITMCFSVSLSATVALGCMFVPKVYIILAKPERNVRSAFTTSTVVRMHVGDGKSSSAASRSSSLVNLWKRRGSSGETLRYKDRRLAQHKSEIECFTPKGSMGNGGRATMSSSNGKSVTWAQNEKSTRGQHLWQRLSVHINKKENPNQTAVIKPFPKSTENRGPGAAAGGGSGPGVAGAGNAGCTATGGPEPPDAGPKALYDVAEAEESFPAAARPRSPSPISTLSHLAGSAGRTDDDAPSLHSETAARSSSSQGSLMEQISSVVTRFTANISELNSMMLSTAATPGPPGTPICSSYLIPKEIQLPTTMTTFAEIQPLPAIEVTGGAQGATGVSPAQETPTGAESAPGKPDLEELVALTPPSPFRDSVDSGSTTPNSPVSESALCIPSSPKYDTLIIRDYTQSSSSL

[2] = target: Metabotropic glutamate receptor 5 (Homo sapiens) (UniProt P41594); assay: Positive allosteric modulator activity at mGluR5 receptor expressed in HEK293A cells assessed as maximum glutamate-induced response preincubated for 140 secs before glutamate challenge by calcium fluorescence assay; assay type: functional, cell-based; conditions: HEK293-A
[3] = target: Metabotropic glutamate receptor 5 (Homo sapiens) (UniProt P41594); assay: Negative allosteric modulator activity at mGluR5 receptor expressed in HEK293A cells assessed as maximum glutamate-induced response preincubated for 140 secs before glutamate challenge by calcium fluorescence assay; assay type: functional, cell-based; conditions: HEK293-A
[4] = target: T1, Metabotropic glutamate receptor 5; assay: Negative allosteric modulator activity at mGluR5 receptor expressed in HEK293A cells assessed as inhibition of glutamate-induced calcium flux preincubated for 140 secs before glutamate challenge by calcium fluorescence assay; assay type: functional, cell-based, HEK293-A
Target sequence in this assay (P31424 whole entry, looked up): as above

[5] = target: T1, Metabotropic glutamate receptor 5; assay: Negative allosteric modulator activity at rat mGluR5 receptor expressed in HEK293A cells
Target sequence in this assay (P31424 whole entry): as the sequence (P31424 whole entry, looked up) above

[6] = target: T1, Metabotropic glutamate receptor 5; assay: Positive allosteric modulator activity at rat mGlu5 receptor expressed in HEK293A cells assessed as increase in glutamate induced response; assay type: cell-based, HEK293-A
Target sequence in this assay (P31424 whole entry): as the sequence (P31424 whole entry, looked up) above

[7] = target: Metabotropic glutamate receptor 5 (Rattus norvegicus) (UniProt P31424); assay: Positive allosteric modulator activity at rat mGlu5 receptor expressed in HEK293A cells assessed as fold shift in glutamate induced response relative to control; assay type: cell-based; conditions: HEK293-A
[8] = target: Metabotropic glutamate receptor 5 (Homo sapiens) (UniProt P41594); assay: Partial antagonist activity at mGluR5 receptor expressed in HEK293A cells assessed as maximum glutamate-induced response preincubated for 140 secs before glutamate challenge by calcium fluorescence assay; assay type: functional, cell-based; design: scale not given: the % may be the effect or the level left; conditions: HEK293-A
[9] = target: T1, Metabotropic glutamate receptor 5; assay: Partial antagonist activity at mGluR5 receptor expressed in HEK293A cells assessed as inhibition of glutamate-induced calcium flux preincubated for 140 secs before glutamate challenge by calcium fluorescence assay; assay type: functional, cell-based, HEK293-A
Target sequence in this assay (P31424 whole entry, looked up): as above

[10] = target: T1, Metabotropic glutamate receptor 5; assay: Ago-Positive allosteric modulator activity at mGluR5 receptor expressed in HEK293A cells assessed as effect on glutamate-induced calcium flux preincubated for 140 secs before glutamate challenge by calcium fluorescence assay; assay type: functional, cell-based, HEK293-A
Target sequence in this assay (P31424 whole entry, looked up): as above

[11] = target: Metabotropic glutamate receptor 5 (Homo sapiens) (UniProt P41594); assay: Ago-Positive allosteric modulator activity at mGluR5 receptor expressed in HEK293A cells assessed as maximum glutamate-induced response preincubated for 140 secs before glutamate challenge by calcium fluorescence assay; assay type: functional, cell-based; conditions: HEK293-A

Chain of Metabotropic glutamate receptor 5 (Rattus norvegicus) (P31424 21-1203 limits assumed): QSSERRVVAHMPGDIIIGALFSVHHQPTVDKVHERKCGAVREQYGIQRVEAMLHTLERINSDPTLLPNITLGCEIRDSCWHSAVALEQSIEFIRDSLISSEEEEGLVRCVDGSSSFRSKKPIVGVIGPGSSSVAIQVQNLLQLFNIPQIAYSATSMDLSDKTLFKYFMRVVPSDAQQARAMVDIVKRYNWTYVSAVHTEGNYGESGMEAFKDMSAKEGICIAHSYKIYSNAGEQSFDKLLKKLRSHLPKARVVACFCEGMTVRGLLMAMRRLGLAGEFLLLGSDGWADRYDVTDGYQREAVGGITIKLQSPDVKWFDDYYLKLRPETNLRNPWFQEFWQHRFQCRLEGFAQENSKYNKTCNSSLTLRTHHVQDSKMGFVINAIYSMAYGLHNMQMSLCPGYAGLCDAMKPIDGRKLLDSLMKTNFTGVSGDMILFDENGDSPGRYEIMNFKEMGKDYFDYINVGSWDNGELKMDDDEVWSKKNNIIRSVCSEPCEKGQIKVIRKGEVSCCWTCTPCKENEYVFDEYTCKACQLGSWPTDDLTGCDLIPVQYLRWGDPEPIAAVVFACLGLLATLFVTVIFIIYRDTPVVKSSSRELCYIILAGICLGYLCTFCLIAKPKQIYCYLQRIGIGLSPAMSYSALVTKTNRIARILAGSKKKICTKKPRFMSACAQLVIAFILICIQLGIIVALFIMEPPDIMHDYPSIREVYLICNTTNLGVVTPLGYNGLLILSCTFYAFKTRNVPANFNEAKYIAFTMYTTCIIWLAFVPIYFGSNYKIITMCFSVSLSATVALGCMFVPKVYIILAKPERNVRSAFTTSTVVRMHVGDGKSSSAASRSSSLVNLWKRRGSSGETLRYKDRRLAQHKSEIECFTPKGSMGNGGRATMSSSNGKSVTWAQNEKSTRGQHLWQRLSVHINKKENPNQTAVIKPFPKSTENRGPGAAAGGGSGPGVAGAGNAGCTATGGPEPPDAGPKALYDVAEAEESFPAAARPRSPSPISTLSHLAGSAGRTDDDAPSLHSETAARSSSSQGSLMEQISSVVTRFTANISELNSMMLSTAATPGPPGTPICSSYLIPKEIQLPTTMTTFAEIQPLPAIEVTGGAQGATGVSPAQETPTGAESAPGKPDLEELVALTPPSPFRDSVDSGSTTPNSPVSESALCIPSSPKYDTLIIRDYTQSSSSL
Chain of Metabotropic glutamate receptor 5 (Homo sapiens) (P41594 21-1212 limits assumed): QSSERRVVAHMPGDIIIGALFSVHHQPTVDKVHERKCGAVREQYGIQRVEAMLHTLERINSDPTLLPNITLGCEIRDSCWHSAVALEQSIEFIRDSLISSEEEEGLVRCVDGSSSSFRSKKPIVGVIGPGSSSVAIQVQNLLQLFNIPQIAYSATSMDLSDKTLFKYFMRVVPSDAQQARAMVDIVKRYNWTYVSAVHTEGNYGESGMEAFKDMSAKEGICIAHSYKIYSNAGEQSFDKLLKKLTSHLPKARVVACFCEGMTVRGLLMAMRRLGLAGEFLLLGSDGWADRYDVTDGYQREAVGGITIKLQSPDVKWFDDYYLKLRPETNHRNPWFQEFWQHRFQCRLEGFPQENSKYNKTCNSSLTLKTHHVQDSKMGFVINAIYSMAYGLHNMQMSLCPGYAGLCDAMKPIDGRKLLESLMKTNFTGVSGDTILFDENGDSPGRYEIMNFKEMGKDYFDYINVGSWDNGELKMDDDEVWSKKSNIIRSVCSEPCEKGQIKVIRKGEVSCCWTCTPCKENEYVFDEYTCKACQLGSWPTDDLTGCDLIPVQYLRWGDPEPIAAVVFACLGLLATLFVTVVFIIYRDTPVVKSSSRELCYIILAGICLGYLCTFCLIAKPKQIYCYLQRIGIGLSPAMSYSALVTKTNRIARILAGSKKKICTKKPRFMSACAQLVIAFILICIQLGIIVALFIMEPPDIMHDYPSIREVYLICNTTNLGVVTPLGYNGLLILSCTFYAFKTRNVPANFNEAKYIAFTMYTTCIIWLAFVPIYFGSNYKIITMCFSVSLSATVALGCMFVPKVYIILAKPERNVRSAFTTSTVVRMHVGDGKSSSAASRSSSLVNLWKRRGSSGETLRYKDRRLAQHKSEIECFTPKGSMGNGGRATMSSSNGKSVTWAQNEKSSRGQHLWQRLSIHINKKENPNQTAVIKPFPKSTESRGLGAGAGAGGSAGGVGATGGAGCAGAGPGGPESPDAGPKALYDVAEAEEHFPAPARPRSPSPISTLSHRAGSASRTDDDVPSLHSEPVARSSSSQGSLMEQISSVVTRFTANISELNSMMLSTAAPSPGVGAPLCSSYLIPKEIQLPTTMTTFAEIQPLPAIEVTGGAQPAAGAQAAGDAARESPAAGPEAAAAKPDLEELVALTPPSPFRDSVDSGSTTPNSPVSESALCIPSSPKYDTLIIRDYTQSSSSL

SMILES	EC50 [1] [nM]	Activity [2] [%]	Activity [3] [%]	IC50 [4] [nM]	further results
O=C(C1CCC1)N1CCCC[C@@H]1c1nc(-c2cccc(F)c2)no1 (stereo in doubt; 22b) [listing 1 of 2 here]	650				
O=C(c1cccs1)N1CCCC1c1nc(-c2cccc(F)c2)no1 (centres undefined)	430	60			
O=C(C1CCC1)N1CCC[C@H](c2nc(-c3ccccn3)no2)C1			33	> 10000	IC50 [5]: 8700 nM
O=C(C1CCC1)N1CCC[C@H](c2nc(-c3cccc(Cl)c3)no2)C1			2.4	200	
O=C(C1CC1)N1CCCC1c1nc(-c2cccc(F)c2)no1 (centres undefined)	2900	68			
O=C(C1CCC1)N1CCCC[C@@H]1c1nc(-c2cccc(F)c2)no1 (stereo in doubt; (R)-20c)	600				
O=C(c1ccc(F)cc1)N1CCCC1c1nc(-c2cccc(F)c2)no1 (centres undefined)	3600	59			
Cc1cccc(-c2noc([C@H]3CCCCN3C(=O)c3cccc(F)c3)n2)c1			16	4700	
Cc1cccc(-c2noc([C@H]3CCCCN3C(=O)C3CCCCC3)n2)c1			9.2	2500	
Cc1cccc(-c2noc([C@@H]3CCCCN3C(=O)C3CCC3)n2)c1				500	
O=C(c1cccc(F)c1)N1CCCC[C@@H]1c1nc(-c2cccc(F)c2)no1	460	59			
COc1cccc(-c2noc([C@H]3CCCCN3C(=O)C3CCC3)n2)c1				300	
O=C(c1ccc(F)cc1F)N1CCCC[C@@H]1c1nc(-c2cccc(F)c2)no1	2900	95			
O=C(c1ccc(F)cc1F)N1CCC[C@H](c2nc(-c3ccccn3)no2)C1					EC50 [6]: 240 nM; fold change (FC) [7]: 14
Cc1cccc(-c2noc([C@H]3CCCCN3C(=O)c3ccc(F)c(F)c3)n2)c1			46	10000	
O=C(c1ccc(F)cc1)N1CCC[C@H](c2nc(-c3cccs3)no2)C1					EC50 [6]: 170 nM; fold change (FC) [7]: 20
O=C(C1CCC1)N1CCCC[C@@H]1c1nc(-c2cccs2)no1				3500	
O=C(C1CCC1)N1CCC[C@@H](c2nc(-c3ccccn3)no2)C1			19	9900	
O=C(C1CCC1)N1CCCC1c1nc(-c2cccc(F)c2)no1 (stereo in doubt; 24b) [listing 1 of 2 here]	1500				
Cc1cccc(-c2noc([C@H]3CCCCN3C(=O)c3ccc(F)cc3)n2)c1			47	10000	
O=C(C1CCC1)N1CCC[C@H](c2nc(-c3cccs3)no2)C1			67	9300	
Cc1cccc(-c2noc([C@H]3CCCCN3C(=O)C3CCC3)n2)c1				300	
Cc1cccc(-c2noc([C@H]3CCCCN3C(=O)C3CC3)n2)c1					Activity [8]: 16%; IC50 [9]: 280 nM
O=C(C1CCC1)N1CCC[C@@H](c2nc(-c3cccc(F)c3)no2)C1			60	> 10000	
O=C(c1cccc(F)c1)N1CCCC1c1nc(-c2cccc(F)c2)no1 (centres undefined)	2600	47			
Cc1cccc(-c2noc(C3CCCN3C(=O)C3CCC3)n2)c1 (racemic)			34	2400	
O=C(C1CCC1)N1CCCC[C@@H]1c1nc(-c2cccc(F)c2)no1 (stereo in doubt; 22b) [listing 2 of 2 here]		38			
O=C(C1CCC1)N1CCCC1c1nc(-c2ccc(F)cc2)no1 (racemic)	2700	72			

SMILES	EC50 [1] [nM]	Activity [2] [%]	Activity [3] [%]	IC50 [4] [nM]	further results
Cc1ccc(C#Cc2cncnc2)cc1					fold change (FC) [7]: 4.2
O=C(C1CCC1)N1CCC[C@H](c2nc(-c3cccc(F)c3)no2)C1			31	2400	
COc1cccc(-c2noc([C@@H]3CCCCN3C(=O)C3CCC3)n2)c1				80	
Cc1cccc(-c2noc([C@H]3CCCN(C(=O)C4CCC4)C3)n2)c1			2.5	700	
O=C(c1ccc(F)cc1F)N1CCCC1c1nc(-c2cccc(F)c2)no1 (centres undefined)	10000	61			
O=C(C1CCC1)N1CCC[C@@H]1c1nc(-c2cccc(F)c2)no1	530	68.4			
Cc1cccc(-c2noc([C@@H]3CCCN(C(=O)C4CCC4)C3)n2)c1			14	4700	
O=C(C1CCC1)N1CCCC[C@H]1c1nc(-c2ccccn2)no1				10000	
O=C(c1ccc(F)cc1)N1CCCC[C@@H]1c1nc(-c2cccc(F)c2)no1		91			
O=C(C1CCC1)N1CCC[C@H]1c1nc(-c2cccc(F)c2)no1	7000	57.3			
O=C(C1CCCC1)N1CCCC[C@@H]1c1nc(-c2cccc(F)c2)no1					EC50 [10]: 310 nM; Activity [11]: 80%
O=C(C1CCCC1)N1CCCC1c1nc(-c2cccc(F)c2)no1 (centres undefined)	1000	75			
Cc1cccc(-c2noc([C@H]3CCCCN3C(=O)C3CCCC3)n2)c1					Activity [8]: 24%; IC50 [9]: 600 nM
O=C(C1CCC1)N1CCCC1c1nc(-c2cccc(F)c2)no1 (racemic)		64			
O=C(C1CCC1)N1CCCC[C@H]1c1nc(-c2cccs2)no1				2600	
Cc1cccc(-c2noc([C@H]3CCCCN3C(=O)c3cccs3)n2)c1			0.9	730	
O=C(C1CCC1)N1CCCC1c1nc(-c2cccc(F)c2)no1 (stereo in doubt; 24b) [listing 2 of 2 here]		63			
O=C(c1ccc(F)c(F)c1)N1CCCC[C@@H]1c1nc(-c2cccc(F)c2)no1	1400	93			
O=C(C1CCC1)N1CCCC[C@H]1c1nc(-c2cccc(F)c2)no1	700				
O=C(c1cccs1)N1CCCC[C@@H]1c1nc(-c2cccc(F)c2)no1		34			
O=C(C1CCCCC1)N1CCCC[C@@H]1c1nc(-c2cccc(F)c2)no1	3500	58			
COc1cccc(-c2noc([C@@H]3CCCN(C(=O)C4CCC4)C3)n2)c1			54	> 10000	
O=C(c1ccc(F)c(F)c1)N1CCCC1c1nc(-c2cccc(F)c2)no1 (centres undefined)	3700	62			
O=C(C1CC1)N1CCCC[C@@H]1c1nc(-c2cccc(F)c2)no1					EC50 [10]: 80 nM; Activity [11]: 70%
COc1cccc(-c2noc([C@H]3CCCN(C(=O)C4CCC4)C3)n2)c1			2.1	1800	
O=C(C1CCC1)N1CCCC1c1nc(-c2cccc(Cl)c2)no1 (racemic)			25	10000	
O=C(C1CCC1)N1CCC[C@@H](c2nc(-c3cccc(Cl)c3)no2)C1			18	3100	
